Patent US20240158446A1, “CYCLIC COMPOUND HAVING SELECTIVE INHIBITORY ACTION ON KRAS OVER HRAS AND NRAS” (CHUGAI SEIYAKU KABUSHIKI KAISHA, priority 2021, published 2024)
pKd: −log10 of the molar value. Where two headings read alike, the source gives them in different places. Where a SMILES comes first, the peptide text is derived from it. Bridges are numbered along the chain shown (N, C = ends). [ ]: non-standard residue; d: D form. The star is where a group is joined. hPhe(3-Cl-4-CF3) = N[C@@H](CCc1ccc(C(F)(F)F)c(Cl)c1)C(=O)O; NPrPhe(4-CF3) = CCCN[C@@H](Cc1ccc(C(F)(F)F)cc1)C(=O)O; NMeGly(cPent) = CN[C@H](C(=O)O)C1CCCC1; Pro(4,4-F2) = O=C(O)[C@@H]1CC(F)(F)CN1; NMeD = CN[C@@H](CC(=O)O)C(=O)O; NMeL = CN[C@@H](CC(C)C)C(=O)O; Azetidin(1-yl) = C1CN(*)C1; Morpholide = C1CN(*)CCO1; NMeA = CN[C@@H](C)C(=O)O; Ac5c = NC1(C(=O)O)CCCC1; Aze = O=C(O)[C@@H]1CCN1; Sar = CNCC(=O)O

How the values were obtained:
[1] = target: GDP-bound KRAS wild-type protein (Homo sapiens, UniProt P01116); assay: Binding to KRAS by surface plasmon resonance (SPR), Single Cycle Kinetics; details: GDP-bound KRAS wild-type protein, read-out: KRAS KD
[2] = target: GDP-bound NRAS wild-type protein (Homo sapiens, UniProt P01111); assay: Binding to NRAS by surface plasmon resonance (SPR), Single Cycle Kinetics; details: for NRAS/KRAS (ratio of KD value for NRAS to KD value for KRAS): SPR, GDP-bound NRAS wild-type protein vs GDP-bound KRAS wild-type protein; for NRAS/KRAS (ratio of KD value with respect to GDP-bound NRAS wild-type protein to KD value with respect to KRAS): SPR KD ratio NRAS/KRAS, class symbols
[3] = target: GDP-bound HRAS wild-type protein (Homo sapiens, UniProt P01112); assay: Binding to HRAS by surface plasmon resonance (SPR), Single Cycle Kinetics; details: for HRAS/KRAS (ratio of KD value for HRAS to KD value for KRAS): SPR, GDP-bound HRAS wild-type protein vs GDP-bound KRAS wild-type protein; for HRAS/KRAS (ratio of KD value with respect to GDP-bound HRAS wild-type protein to KD value with respect to KRAS): SPR KD ratio HRAS/KRAS, class symbols
[4] = SPR Single Cycle Kinetics, 1:1 binding model

Chain of GDP-bound KRAS wild-type protein (P01116 whole entry): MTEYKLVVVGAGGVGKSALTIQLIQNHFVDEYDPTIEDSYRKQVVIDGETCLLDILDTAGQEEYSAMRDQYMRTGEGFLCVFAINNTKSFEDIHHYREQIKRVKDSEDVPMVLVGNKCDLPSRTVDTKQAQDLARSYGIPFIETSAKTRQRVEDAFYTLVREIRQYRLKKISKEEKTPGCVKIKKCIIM
Chain of GDP-bound NRAS wild-type protein (P01111 whole entry): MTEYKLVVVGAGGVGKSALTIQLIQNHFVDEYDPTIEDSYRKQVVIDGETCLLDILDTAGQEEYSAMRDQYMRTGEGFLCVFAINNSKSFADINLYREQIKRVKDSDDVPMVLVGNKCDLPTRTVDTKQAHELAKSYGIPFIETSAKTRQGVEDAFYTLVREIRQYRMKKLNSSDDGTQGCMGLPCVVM
Chain of GDP-bound HRAS wild-type protein (P01112 whole entry): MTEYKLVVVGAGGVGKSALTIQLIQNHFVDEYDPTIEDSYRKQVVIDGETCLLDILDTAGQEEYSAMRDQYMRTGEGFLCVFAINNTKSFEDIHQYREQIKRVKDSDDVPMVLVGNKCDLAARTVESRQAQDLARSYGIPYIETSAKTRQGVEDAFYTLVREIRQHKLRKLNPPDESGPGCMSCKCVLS

Row | pKd [1, 4] | pKd ([1]; SPR, Single Cycle Kinetics) | Structure (SMILES) | NRAS/KRAS (ratio of KD value for NRAS to KD value for KRAS) [2] | HRAS/KRAS (ratio of KD value for HRAS to KD value for KRAS) [3] | further results
1 | 10.09 | – | CCCN1C(=O)[C@@H]2CCN2C(=O)[C@H](C)N(C)C(=O)[C@H]([C@@H](C)CC)NC(=O)[C@H](CC(C)C)N(C)C(=O)C[C@@H](C(=O)N2CCC2)N(C)C(=O)[C@H](C2CCCC2)N(C)C(=O)C2(CCCC2)NC(=O)[C@@H]2CCCN2C(=O)[C@H](CCc2ccc(C(F)(F)F)c(Cl)c2)NC(=O)CN(C)C(=O)[C@@H]1Cc1ccc(C(F)(F)F)cc1 [PP0181] ([NMeL]I[NMeA][Aze][NPrPhe(4-CF3)][Sar][hPhe(3-Cl-4-CF3)]P[Ac5c][NMeGly(cPent)][NMeD]-{Azetidin(1-yl)}; lactam N-11) | C (A compound having a KD ratio of 0.1 or more and less than 3 is denoted as C) | B (a compound having 3 or more and less than 10 is denoted as B) | –
2 | – | 9.40 | CCO[C@@H]1C[C@H]2C(=O)NC3(CC(C)(C)C3)C(=O)N(C)[C@@H](C(CC)CC)C(=O)N(C)[C@H](C(=O)N3CCCC3)CC(=O)N(C)[C@@H](COC)C(=O)N[C@@H]([C@@H](C)CC)C(=O)N(C)CC(=O)N(C)[C@H]3C/C=C\CCN(C3=O)[C@@H](Cc3ccc(C(F)(F)F)cc3)C(=O)N(C)CC(=O)N[C@@H](CCc3ccc(C(F)(F)F)c(Cl)c3)C(=O)N2C1 [PP2128] | AA (a compound having 20 or more is denoted as AA) | A (a compound having 10 or more and less than 20 is denoted as A) | –
3 | – | 9.51 | CCO[C@@H]1C[C@H]2C(=O)NC3(CCC3)C(=O)N(C)[C@@H](C3CCCC3)C(=O)N(C)[C@H](C(=O)N(C)C)CC(=O)N(C)[C@@H](CC)C(=O)N[C@@H]([C@@H](C)CC)C(=O)N3C[C@H](OCC)C[C@H]3C(=O)N(C)[C@H]3C/C=C\CCN(C3=O)[C@@H](Cc3ccc(C(F)(F)F)cc3)C(=O)N(C)CC(=O)N[C@@H](CCc3cc(F)c(C(F)(F)F)c(F)c3)C(=O)N2C1 [PP1057] | A (a compound having 10 or more and less than 20 is denoted as A) | B (a compound having 3 or more and less than 10 is denoted as B) | –
4 | 9.82 | – | CCO[C@@H]1C[C@H]2C(=O)NC3(CC(C)(C)C3)C(=O)N(C)[C@@H](C3CCCC3)C(=O)N(C)[C@H](C(=O)N3CCCC3)CC(=O)N(C)[C@H]3CCCC/C=C/c4ccc(cc4)C[C@@H](C(=O)N(C)CC(=O)N[C@@H](CCc4ccc(Cl)c(Cl)c4)C(=O)N2C1)N1CC/C=C\C[C@@H](C1=O)N(C)C(=O)CN(C)C(=O)[C@H]([C@@H](C)CC)NC3=O [PP2593] | – | – | NRAS/KRAS (ratio of KD value with respect to GDP-bound NRAS wild-type protein to KD value with respect to KRAS) [2]: A (a compound having 10 or more and less than 20 is denoted as A); HRAS/KRAS (ratio of KD value with respect to GDP-bound HRAS wild-type protein to KD value with respect to KRAS) [3]: A (a compound having 10 or more and less than 20 is denoted as A)
5 | – | 10.24 | CCO[C@@H]1C[C@H]2C(=O)NC3(CCC3)C(=O)N(C)[C@@H](C3CCCC3)C(=O)N(C)[C@H](C(=O)N(C)C)CC(=O)N(C)[C@@H](CC)C(=O)N[C@@H]([C@@H](C)CC)C(=O)N(C)CC(=O)N(C)[C@H]3C[C@H]4C[C@H]4CN(C3=O)[C@@H](Cc3ccc(C(F)(F)F)cc3)C(=O)N(C)CC(=O)N[C@@H](CCc3cc(F)c(C(F)(F)F)c(F)c3)C(=O)N2C1 [PP0830] | C (A compound having a KD ratio of 0.1 or more and less than 3 is denoted as C) | C (A compound having a KD ratio of 0.1 or more and less than 3 is denoted as C) | –
6 | – | 9.70 | C=CCN1CC(=O)N(C)[C@H]2C/C=C\CCN(C2=O)[C@@H](Cc2ccc(C)cc2)C(=O)N(C)CC(=O)N[C@@H](CCc2ccc(C(F)(F)F)c(OC)c2)C(=O)N2C[C@H](OCC)C[C@H]2C(=O)NC2(CC(C)(C)C2)C(=O)N(C)[C@@H](C2CCCC2)C(=O)N(C)[C@H](C(=O)N(C)C)CC(=O)N(C)[C@@H](CCC)C(=O)N[C@@H]([C@@H](C)CC)C1=O [PP2098] | A (a compound having 10 or more and less than 20 is denoted as A) | A (a compound having 10 or more and less than 20 is denoted as A) | –
7 | 8.30 | – | CCCN1C(=O)CN(C)C(=O)[C@@H]2CCN2C(=O)[C@H]([C@@H](C)CC)NC(=O)[C@H](CC(C)C)N(C)C(=O)C[C@@H](C(=O)N2CCOCC2)NC(=O)[C@H](C2CCCC2)N(C)C(=O)C2(CCCC2)NC(=O)[C@@H]2CC(F)(F)CN2C(=O)[C@H](CCc2ccc(C(F)(F)F)c(Cl)c2)NC(=O)CN(C)C(=O)[C@@H]1Cc1ccc(C(F)(F)F)cc1 [PP0339] ([NMeL]I[Aze][Sar][NPrPhe(4-CF3)][Sar][hPhe(3-Cl-4-CF3)][Pro(4,4-F2)][Ac5c][NMeGly(cPent)]D-Morpholide; lactam N-11) | B (a compound having 3 or more and less than 10 is denoted as B) | B (a compound having 3 or more and less than 10 is denoted as B) | –
8 | 8.77 | – | CCC[C@H]1C(=O)N[C@@H]([C@@H](C)CC)C(=O)N(C2CC2)CC(=O)N(C)[C@H]2C/C=C\CCN(C2=O)[C@@H](Cc2ccc(C(F)(F)F)cc2)C(=O)N(C)CC(=O)N[C@@H](CCc2cc(F)c(C(F)(F)F)c(F)c2)C(=O)N2C[C@H](OCC)C[C@H]2C(=O)NC2(CC(C)(C)C2)C(=O)N(C)[C@@H](CC2CC2)C(=O)N(C)[C@H](C(=O)N(C)C)CC(=O)N1C [PP2813] | – | – | NRAS/KRAS (ratio of KD value with respect to GDP-bound NRAS wild-type protein to KD value with respect to KRAS) [2]: AA (a compound having 20 or more is denoted as AA); HRAS/KRAS (ratio of KD value with respect to GDP-bound HRAS wild-type protein to KD value with respect to KRAS) [3]: A (a compound having 10 or more and less than 20 is denoted as A)
9 | – | 11.14 | CCCN1C(=O)CN(C)C(=O)CN(C)C(=O)[C@H]([C@@H](C)CC)NC(=O)[C@@H]2CCCCCOc3ccc(cc3)C[C@H]1C(=O)N(C)CC(=O)N[C@@H](CCc1cc(F)c(C(F)(F)F)c(F)c1)C(=O)N1C[C@H](OCC)C[C@H]1C(=O)NC1(CCCC1)C(=O)N(C)[C@@H](C1CCCC1)C(=O)N(C)[C@H](C(=O)N(C)C)CC(=O)N2C [PP0895] | C (A compound having a KD ratio of 0.1 or more and less than 3 is denoted as C) | C (A compound having a KD ratio of 0.1 or more and less than 3 is denoted as C) | –
10 | – | 8.57 | CCO[C@@H]1C[C@H]2C(=O)NC3(CCC3)C(=O)N(C)[C@@H](C3CCCC3)C(=O)N(C)[C@H](C(=O)N3CCOCC3)CC(=O)N(C)[C@@H](Cc3ccccc3Cl)C(=O)N[C@@H]([C@@H](C)CC)C(=O)N(C)CC(=O)N(C)[C@H]3CCCCCN(C3=O)[C@@H](Cc3ccc(C(F)(F)F)cc3)C(=O)N(C)CC(=O)N[C@@H](CCc3cc(F)c(C(F)(F)F)c(F)c3)C(=O)N2C1 [PP0929] | A (a compound having 10 or more and less than 20 is denoted as A) | B (a compound having 3 or more and less than 10 is denoted as B) | –
11 | 10.04 | – | CCO[C@@H]1C[C@H]2C(=O)NC3(CCC3)C(=O)N(C)[C@@H](C3CCCC3)C(=O)N(C)[C@H](C(=O)N(C)CC)CC(=O)N(C)[C@@H](CC(C)C)C(=O)N[C@@H]([C@@H](C)CC)C(=O)N(C)CC(=O)N(C)[C@H]3C/C=C\CCN(C3=O)[C@@H](Cc3ccc(C(F)(F)F)cc3)C(=O)N(C)CC(=O)N[C@@H](CCc3ccc(C(F)(F)F)c(OC)c3)C(=O)N2C1 [PP2846] | – | – | NRAS/KRAS (ratio of KD value with respect to GDP-bound NRAS wild-type protein to KD value with respect to KRAS) [2]: AA (a compound having 20 or more is denoted as AA); HRAS/KRAS (ratio of KD value with respect to GDP-bound HRAS wild-type protein to KD value with respect to KRAS) [3]: A (a compound having 10 or more and less than 20 is denoted as A)
12 | – | – | CC[C@H](C)[C@@H]1NC(=O)[C@H](CC2CC2)N(C)C(=O)C[C@@H](C(=O)N(C)C)N(C)C(=O)[C@H](C2CCCC2)N(C)C(=O)C2(CCC2)NC(=O)[C@@H]2C[C@@H](F)CN2C(=O)[C@H](CCc2cc(F)c(C(F)(F)F)c(F)c2)NC(=O)CN(C)C(=O)[C@H](Cc2ccc(C(F)(F)F)cc2)N2CC/C=C\C[C@@H](C2=O)N(C)C(=O)CN(C)C1=O [PP1497, (2S,8S,12R,14S,20S,23S,27S,30S,36S,38Z)-20-cyclopentyl-27-(cyclopropylmethyl)-8-[2-[3,5-difluoro-4-(trifluoromethyl)phenyl]ethyl]-12-fluoro-N,N,4,19,22,26,32,35-octamethyl-30-[(1S)-1-methylpropyl]-3,6,9,15,18,21,25,28,31,34,42-undecaoxo-2-[[4-(trifluoromethyl)phenyl]methyl]spiro[1,4,7,10,16,19,22,26,29,32,35-undecazatricyclo[34.5.1.0^10,14]dotetracont-38-ene-17,1′-cyclobutane]-23-carboxamide] | – | – | pKd ([1]; SPR, Single Cycle Kinetics, 1:1 binding model): 10.66; NRAS/KRAS (ratio of KD value for NRAS to KD value for KRAS) ([2]; KD ratio class): A (a compound having 10 or more and less than 20 is denoted as A); HRAS/KRAS (ratio of KD value for HRAS to KD value for KRAS) ([3]; KD ratio class): A (a compound having 10 or more and less than 20 is denoted as A)
13 | – | 8.85 | CCO[C@@H]1C[C@H]2C(=O)NC3(CC(C)(C)C3)C(=O)N(C)[C@@H](C(CC)CC)C(=O)N(C)[C@H](C(=O)N(C)C)CC(=O)N(C)[C@@H](C(C)C)C(=O)N[C@@H]([C@@H](C)CC)C(=O)N(C)CC(=O)N(C)[C@H]3C/C=C\CCN(C3=O)[C@@H](Cc3ccc(C(F)(F)F)cc3)C(=O)N(C)CC(=O)N[C@@H](CCc3ccc(Cl)c(Cl)c3)C(=O)N2C1 [PP2181] | AA (a compound having 20 or more is denoted as AA) | A (a compound having 10 or more and less than 20 is denoted as A) | –
